Test results reported in US20090123447A1, “COMPOSITIONS AND METHODS TO INHIBIT RNA VIRAL REPRODUCTION” (priority 2007, published 2009).

Experiments:
[1] = system: subgenomic HCV replicon of genotype 1b; assay: microbe, parasite or virus in culture; assay type: cell-based, hepatitis C virus; conditions: SgPC2 cells, Northern blot
Experimental: Huh7 human hepatoma cells were cultured in Dulbecco's modified Eagle medium (DMEM; Invitrogen, Carlsbad, Calif., USA) supplemented with 10% fetal bovine serum (FBS; Invitrogen), 100 units/ml of penicillin, and 100 μg/ml of streptomycin in a 5% CO2 incubator. SgPC2 cells are G418-selected, pooled Huh7 cell clones that support the continuous replication of a subgenomic HCV replicon of genotype 1b and [29] (GenBank Accession No. AJ242652) that carries a S11791 adaptive mutation within the NS5A region. SgPC2 cells were maintained in the above medium supplemented with 0.5 mg/ml G418 (Invitrogen). G418 was removed at least 1 day before cell treatments.

[2] = system: GSH; assay: Intracellular glutathione (GSH) in SgPC2 cells, GSH recycling assay; assay type: cell-based, human; conditions: 20-40 μM BSO, 24 h
Experimental: Intracellular GSH concentration was determined using a GSH recycling assay [35] and expressed as nmol/mg protein. ATP level was measured using the Somatic Cell ATP assay kit from Sigma-Aldrich, as previously described [32]. Protein level was determined with a bicinchoninic acid kit (Pierce Biotechnology, Inc., Rockford, Ill., USA).

[3] = system: intracellular calcium concentration ([Ca^2+]i); assay: [Ca^2+]i measurement with Indo-1 AM in SgPC2 cells; assay type: cell-based, human; conditions: BSO-treated cells, after 24 h
Experimental: Briefly, on the day of the experiment, cells were washed in Krebs-Ringer phosphate buffer (KRPH; pH 7.4, containing 1.0 mM MgSO4, 1.3 mM CaCl2, 10 mM Hepes, 5 mM glucose, 125 mM NaCl, 5 mM KCl, and 10 mM sodium phosphate) and subsequently loaded with 10-20 μM Indo-1 AM (70 μl/coverslip; Molecular Probes, Inc., Eugene, Oreg., USA) containing 10 μM probenecid (Molecular Probes) for 30 min at 37° C. The attached cells were washed and bathed in KRPH/probenecid at 4° C. or room temperature until further analysis. Then, coverslips were individually submerged into KRPH and preequilibrated inside the […] fluorimeter (Hitachi) in darkness for 3 min, and [Ca^2+]i was monitored continuously at 37° C., with excitation at […] and emission at 400 and 450 nm. H2O2 and other agents were injected at different time points, as indicated under Results. [Ca^2+]i was calculated as described. Rmax was determined by adding 8-16 μM digitonin and Rmin with 10 mM ethylene glycol-bis(β-aminoethyl)-N,N,N'-tetraacetic acid (EGTA). […] The baseline, which represented unstimulated cells scanned over time, was plotted along with other measurements or subtracted from the other plots. Cells were serum-depleted, 1 day before the experiment, by incubating them overnight in DMEM plus 0.5% FBS. […] Then, CaCl2 was added before determining the Rmax for each run.

[4] = system: JFH1-transfected cells; assay: ATP concentration as cytotoxicity measure in JFH1-transfected cells
Experimental: Determination of ATP concentrations—ATP level was measured, using Somatic Cell ATP Assay kit from Sigma-Aldrich, as previously described (68). Protein level was determined with bicinchoninic acid kit (Pierce Biotechnology, Inc., Rockford, Ill.).
ATP concentration was measured to determine if the treatments were cytotoxic to the cells.

[5] = system: JFH1 HCV (genotype 2a); assay type: cell-based, hepatitis C virus; conditions: JFH1-transfected cells, 20 uM
Experimental: (§1) For viral RNA transfection, JFH1, JFH1/GND, and pSGR-JFH1-Luc were linearized with XbaI and used to synthesize the corresponding positive-sense stranded HCV RNA, as previously described (68). Then, 5×10^6 Huh7 cells were rinsed with Opti-Mem (Invitrogen), mixed briefly with 10-20 μg of the in vitro transcribed RNA in 0.4 ml of Opti-Mem, and then electroporated at 260 volts and 950 μF. […] Medium was changed daily. For infection with HCV, medium collected from JFH1 RNA-transfected cells were cleared of cell debris, as described, and added to naïve Huh7 cells. Typically, 1:2 or 3:2 ratio of the virus-containing medium and fresh cell culture medium were used.
JFH1/GND was used as the negative control. When L-buthionine S,R-sulfoximine (BSO) was used, the cells were pretreated with BSO for 16-24 hrs prior to the initiation of treatments.
Intracellular JFH1 HCV RNA content was also analyzed by qRT-PCR (Taqman), using ABI7300 real time PCR system and one step RT-PCR kit from Applied Biosystems. The forward primer was 5′-[…]-3′ (nt. 146 to 164) and the reverse primer, 5′-[…]-3′ (nt. 277 to 295). The probe was 5′[…]3′ (nt. 168 to 188) and was fluorogenically labeled with FAM (5′) and TAMRA (3′) (Biosearch Technologies, Novato, Calif.). Briefly, the reactions were carried out at 48° C. for 30 min for reverse transcription, followed by denaturation at 95° C. for 10 min, and then 50 cycles of 15 sec denaturation at 95° C. plus 60 sec of annealing and extension at 60° C. All samples were analyzed in duplicates or triplicates. In vitro RNA transcripts were used to generate standard curve to determine RNA copy numbers. The level of 18S rRNA was also analyzed, using manufacturer-optimized protocol, as the control.
To analyze the amount of the extracellular HCV RNA, medium from the cells were cleared by low-speed centrifugation and then, treated with RNaseA at room temperature. Then, the RNA samples were extracted, using Trizol LS Reagent (Invitrogen), and analyzed for HCV RNA content by qRT-PCR.

[6] = system: SgJFH1-Luc RNA (subgenomic JFH1 replicon); assay: SgJFH1-Luc RNA replication in Huh7 cells, luciferase assay; assay type: cell-based, hepatitis C virus; conditions: Huh7 cells transfected with SgJFH1-Luc RNA
Experimental: as §1
SgJFH1-Luc RNA replication was also monitored by firefly luciferase reporter assay, using a kit from Promega.
To investigate whether the HCV RNA replication is modulated by ROS, Huh7 cells were transfected with the SgJFH1-Luc RNA and treated with GO plus glucose.
After 24 and 48 hours, respectively, the cells were collected in PBS, centrifuged, lysed in the reporter lysis buffer (Promega), and analyzed for luciferase activity.

[7] = system: GSH; assay: Intracellular GSH content in Huh7 cells (unpublished observation); assay type: cell-based, human; conditions: twenty to 100 μM BSO

Compound: CCCCS(=N)(=O)CCC(N)C(=O)O (stereo not shown) [BSO, 1-buthionine S,R-sulfoximine, reference compound]
- effect on HCV RNA level / replication [1]: sufficient to decrease the HCV RNA level
- decrease of total intracellular GSH concentration [2]: about 75%
- intracellular calcium concentration [3]: 60.6 ± 4.3 nM
- cytotoxicity (ATP concentration, cell survivability) [4]: did not cause any loss in cell survivability
- intracellular HCV RNA level [5]: significant suppression
- HCV RNA level by luciferase activity [6]: further suppressed HCV RNA
- decrease of intracellular GSH content [7]: about 60%
